Patent US20050170502A1, “Methods for maintaining hepatocytes in culture and for differentiating embryonic stem cells along a hepatocyte lineage” (REGENTS OF THE UNIVERSITY OF CALIFORNIA, priority 2003, published 2005)

System: mouse ES cells (ES-D3)
Assay: Hepatocyte-specific gene expression in differentiated mouse ES cells, real-time quantitative RT-PCR
Details: also in murine ES cells
Experimental: Mouse ES cell line ES-D3 and mouse STO fibroblasts were obtained from the American Type Culture Collection, Manassas, Va. ES cells were expanded on STO fibroblast feeder layers in Dulbecco's modified Eagle's medium (DMEM) (unless specified, cell culture supplies were from Invitrogen, Carlsbad, Calif.) containing 15% fetal bovine serum (FBS), 1 mM L-glutamine, 60 μM non-essential amino acid solution, 0.1 mM 2-mercaptoethanol, 10 mM HEPES (Sigma-Aldrich, Saint Louis, Mo.), 1400 U/ml leukemia inhibitory factor (LIF) (Chemicon International, Temecula, Calif.), and penicillin/streptomycin at standard concentrations. To prepare feeder layers, STO fibroblasts were cultured until confluent and treated with 10 μg/ml mitomycin C (Sigma-Aldrich) for 4 hours. Mitomycin C-treated STO fibroblasts were then re-seeded at a density of 7-8×10^4/cm^2 one day before plating ES cells. […] These culture conditions stimulated the formation of non-attached embryoid bodies (EBs): Five days later, EBs were placed on different substratum pre-coated 6-well tissue culture plates in various media formulations, and the expression of hepatocyte-specific genes was examined at day 8-75 (FIG. 1A). Substrata used for pre-coating included gelatin, collagen type I (Sigma-Aldrich), collagen type IV, laminin, fibronectin and poly-D-lysine (Becton Dickinson Labware, Bedford, Mass.). The following culture media were tested for ES cells differentiation: DMEM, Williams' medium E (WME), and Iscove's modified Dulbecco's medium (IMDM), all supplemented with 10 to 20% FBS, 0.3 mM monothioglycerol (Sigma-Aldrich), penicillin/streptomycin at standard concentrations, and a range of growth and differentiation factors including hepatocyte growth factor (HGF, 20 ng/ml), nerve growth factor (NGF, 100 ng/ml), epidermal growth factor (EGF, 100 ng/ml), acidic fibroblast growth factor (aFGF, 100 ng/ml), basic fibroblast growth factor (bFGF, 100 ng/ml) (Li, X. et al., J. Cell. Biol. 153:811-822 (2001)), all-trans-retinoic acid (RA, 1 μM) (Makita, T. et al., Genes. Dev. 15:889-901 (2001)), oncostatin M (OnM, 10 ng/ml) (Kamiya, A. et al., EMBO. J. 18:2127-2136 (1999)), bovine insulin (0.126 U/ml), dexamethasone (100 nM) (all from Sigma-Aldrich), and human insulin (0.126 U/ml) (Eli Lilly and Company, Indianapolis, Ind.). Growth and differentiation factors were added to the culture media at final concentrations as indicated above. In addition, EBs were also cultured in medium that was previously used to induce multipotent adult progenitor cells (MAPC) from mouse bone marrow to differentiate into functional hepatocyte-like cells (Schwartz, R. E. et al., J. Clin. Invest. 109:1291-1302 (2002)).
Total RNA was extracted with RNeasy Mini Kit (Qiagen, Valencia, Calif.). Real time quantitative RT-PCR was employed for the determination of gene expression as described in detail previously by our group (Wege, H. et al., Gastroenterology 124:432-444 (2003)). In brief, one μg RNA was used to generate cDNA after treatment with deoxyribonuclease I (Invitrogen). First-strand synthesis was performed employing the Thermoscript RT-PCR System (Invitrogen) with random hexamers. Relative mouse or human gene expression analysis (ΔΔCT) was performed by real-time quantitative PCR with the ABI Prism 7700 Sequence Detection System and SYBR PCR Green Master Mix or TaqMan PCR Master Mix (Applied Biosystems, Foster City, Calif.). Primer pairs and hybridization probes for mouse or human albumin, prealbumin (transthyretin), alphal-antitrypsin (α1-AT), glucose-6-phosphatase (G6P), cytokeratin 19 (CK19), γ-glutamyl transferase (GGT), and β-actin, were synthesized, and primer concentrations were optimized for specific amplification at 60° C. […] Expression levels were normalized using mouse β-actin or human glyceraldehyde phosphate dehydrogenase (GAPDH) as an endogenous control. Normalized expression of hepatocyte-specific genes was compared to levels detected in primary adult mouse or human hepatocytes.

| Compound | production of hepatocyte-specific proteins compared with bovine insulin |
| --- | --- |
| human insulin: human insulin (Eli Lilly and Company), growth factor added to the culture medium | higher production |

Same assay, conditions: mouse ES cells, IMDM, collagen type I, day 33, FIG. 2A

| Compound | albumin gene expression (effect of individual growth and differentiation factors) |
| --- | --- |
| C[C@@H]1C[C@H]2[C@@H]3CCC4=CC(=O)C=C[C@]4(C)[C@@]3(F)[C@@H](O)C[C@]2(C)[C@@]1(O)C(=O)CO [dexamethasone, 9-fluoro-11β,17,21-trihydroxy-16α-methylpregna-1,4-diene-3,20-dione] | most effective |
| NGF: nerve growth factor | only minor positive or even negative effects |
| bFGF: basic fibroblast growth factor | only minor positive or even negative effects |
| HGF: hepatocyte growth factor | only minor positive or even negative effects |
| human insulin: human insulin (Eli Lilly and Company), growth factor added to the culture medium | most effective |
| aFGF: acidic fibroblast growth factor | only minor positive or even negative effects |
| CC1=C(/C=C/C(C)=C/C=C/C(C)=C/C(=O)O)C(C)(C)CCC1 [RA, all-trans-retinoic acid] | only minor positive or even negative effects |
| hEGF: human epidermal growth factor (NSDSECPLSHDGYCLHDGVCMYIEALDKYACNCVVGYIGERCQYRDLKWWELR; UniProt P01133 971-1023, looked up) | only minor positive or even negative effects |
| mEGF: mouse epidermal growth factor (NSYPGCPSSYDGYCLNGGVCMHIESLDSYTCNCVIGYSGDRCQTRDLRWWELR; not fully specified; Epidermal growth factor; UniProt P01132 977-1029, looked up) | only minor positive or even negative effects |
